For data set [1], the system named is human glioblastoma U87 cells. Description: In vitro cell viability assay (MTT), U87. It counts as cell-based. Particulars: for cell viability result in words: U87 and MCF7 cells; for IC50: U87 cells. The procedure:
The cell viability assay measures how effectively different compounds (i.e., different conjugates or structures) kill cancer cells in vitro.
For the cell viability assay, the actual potency IC50 values depend on a number of factors, including the length of incubation time.
(§1) Human glioblastoma cells (U87-luc) were seeded in 96-well plates ([…]) and were treated with the compounds of interest at concentrations 1, 3, 10, 30, and 100 µM. At the end of the experiments, the cell cultures were supplemented with MTT reagent (3-(4,5-dimethylthiazol-2-yl)-2,5-diphenyltetrazolium bromide) and incubated for an additional 4 hours. Then, dimethyl sulfoxide ([…]) was added to the cell culture to dissolve the formazan crystals and incubated for 10 minutes at room temperature. The absorbance rate of the cell cultures was read at 570 nm by using a Microplate Reader. All the reactions were performed in triplicate. Measured data of cellular proliferation were calculated using viability values of untreated control cells (100%).

Data set [2] has as its system human breast cancer MCF7 cells. Description: In vitro cell viability assay (MTT), MCF7. It counts as cell-based. The protocol: [The source words this procedure for another cell line and reports this cell line under the same test.] The cell viability assay measures how effectively different compounds (i.e., different conjugates or structures) kill cancer cells in vitro. The IC50 value is the compound concentration at which the conjugate kills 50% of the cells, which inhibits 50% of the cells from remaining alive.
For the cell viability assay, the actual potency IC50 values depend on a number of factors, including the length of incubation time. Thus, the cell viability assay is particularly effective for determining the relative toxicity of different compounds.
as §1

Data set [3] deals with integrin αvβ3 expressing U87 cells. Description: In vitro cell adhesion assay (U87 cells to fibrinogen). It is filed as cell-based, human. The conditions noted are these: 2 h, read-out: IC50, inhibition of cell adhesion to fibrinogen. The text has this:
The cell adhesion assay is a cell-based assay that measures how well different compounds (i.e., different conjugates or structures) block the adhesion of integrin αvβ3 expressing U87 cells to fibrinogen, a macromolecule that binds to the integrin αvβ3 receptor. The IC50 value is the compound concentration at which the compound displaces 50% of the cell adhesion to fibrinogen, which inhibits 50% of the cells from adhering to fibrinogen.
The cell adhesion assay is a functional cell assay, so the conjugates cannot be used with chemotherapy attached, because the conjugates will release the chemo over the course of the testing, killing the cells so that no readout can be obtained. Thus, the full conjugate molecule (targeting moiety, PEG, cleavable linker) is used without the chemo for this assay. Two compounds (conjugate 74 and conjugate 59) used are slightly different integrin αvβ3 targeting pieces with a large PEG (PEG 35 and PEG39, respectively), and the VCP cleavable linker attached. […]
96-well microtiter plates were coated with up to […] fibrinogen per well in […] phosphate-buffered saline (PBS) and incubated at 4° C. overnight. […] After washing with PBS, the fluorescence intensity of adherent cells was measured at an emission wavelength of 530 nm using an excitation wavelength of 485 nm by using a Microplate Reader.

A further data set deals with T1, integrin αvβ3 receptor (Homo sapiens, UniProt P05106+P06756).
T1 construct: purchased ACRO Biosystems (Newark, DE) and/or Bioss Inc (Woburn, MA)
T1 sequence (P06756 31-992 limits assumed): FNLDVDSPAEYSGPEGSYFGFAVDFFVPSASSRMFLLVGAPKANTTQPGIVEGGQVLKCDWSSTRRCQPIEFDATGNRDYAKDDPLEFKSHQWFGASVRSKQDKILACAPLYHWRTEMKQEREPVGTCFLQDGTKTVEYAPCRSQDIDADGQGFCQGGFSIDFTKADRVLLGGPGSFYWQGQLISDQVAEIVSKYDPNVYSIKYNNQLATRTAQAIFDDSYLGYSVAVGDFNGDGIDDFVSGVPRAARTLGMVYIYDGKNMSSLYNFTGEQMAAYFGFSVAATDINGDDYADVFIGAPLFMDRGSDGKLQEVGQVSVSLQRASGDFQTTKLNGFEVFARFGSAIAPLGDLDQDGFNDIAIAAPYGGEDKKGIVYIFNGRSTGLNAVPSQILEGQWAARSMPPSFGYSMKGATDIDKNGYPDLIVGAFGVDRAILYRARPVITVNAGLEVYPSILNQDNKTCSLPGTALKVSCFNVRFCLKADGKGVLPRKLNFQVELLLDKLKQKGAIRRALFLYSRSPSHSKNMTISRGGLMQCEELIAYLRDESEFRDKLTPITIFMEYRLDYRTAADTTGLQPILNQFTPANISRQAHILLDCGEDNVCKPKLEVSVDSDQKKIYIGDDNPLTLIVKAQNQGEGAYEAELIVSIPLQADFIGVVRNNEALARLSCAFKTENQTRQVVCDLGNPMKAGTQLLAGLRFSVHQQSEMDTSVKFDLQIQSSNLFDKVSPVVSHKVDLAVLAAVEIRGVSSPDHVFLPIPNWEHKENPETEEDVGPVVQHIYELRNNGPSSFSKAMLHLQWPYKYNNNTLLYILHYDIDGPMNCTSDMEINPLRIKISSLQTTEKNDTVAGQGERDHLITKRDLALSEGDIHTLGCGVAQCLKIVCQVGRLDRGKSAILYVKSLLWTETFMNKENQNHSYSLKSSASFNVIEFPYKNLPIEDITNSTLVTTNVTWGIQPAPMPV
T1 sequence (P05106 27-718 limits assumed): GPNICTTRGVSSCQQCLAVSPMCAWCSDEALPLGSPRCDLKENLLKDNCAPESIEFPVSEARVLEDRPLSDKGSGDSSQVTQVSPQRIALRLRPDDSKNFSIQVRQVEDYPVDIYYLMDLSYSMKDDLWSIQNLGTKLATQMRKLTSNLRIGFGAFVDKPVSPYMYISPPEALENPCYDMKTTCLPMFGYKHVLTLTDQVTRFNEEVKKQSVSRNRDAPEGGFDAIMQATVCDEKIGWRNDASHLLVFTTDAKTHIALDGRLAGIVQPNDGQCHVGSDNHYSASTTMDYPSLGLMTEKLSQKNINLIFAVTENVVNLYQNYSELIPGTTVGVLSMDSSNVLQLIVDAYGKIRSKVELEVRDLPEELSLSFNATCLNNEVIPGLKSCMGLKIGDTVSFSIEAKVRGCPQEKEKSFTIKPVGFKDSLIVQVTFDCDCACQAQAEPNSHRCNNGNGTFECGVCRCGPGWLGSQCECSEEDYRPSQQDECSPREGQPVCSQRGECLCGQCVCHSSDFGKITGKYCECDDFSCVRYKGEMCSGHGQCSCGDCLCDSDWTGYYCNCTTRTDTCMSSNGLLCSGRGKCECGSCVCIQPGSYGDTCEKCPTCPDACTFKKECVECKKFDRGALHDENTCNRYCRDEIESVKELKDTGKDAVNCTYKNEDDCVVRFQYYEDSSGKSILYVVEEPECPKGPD
Description: In vitro integrin αvβ3 binding assay. The conditions noted are these: immobilized integrin αvβ3; read-out: IC50, displacement of labelled integrin αvβ3 ligand. The text has this:
The in vitro integrin αvβ3 binding assay measures the binding affinity for different compounds (i.e., different conjugates or structures) with immobilized integrin αvβ3 receptor. The IC50 value is the compound concentration at which the compound displaces 50% of a labelled integrin αvβ3 ligand from the integrin αvβ3 receptor, which inhibits 50% of the labelled integrin αvβ3 ligand from binding to the integrin αvβ3 receptor.
Ninety-six polystyrene microtiter plate was coated with fibrinogen and incubated at 4° C. overnight. The wells were blocked with 3% BSA for 2 hours at room temperature and were washed with buffer A (50 mM Tris/HCl, 100 mM NaCl, 1 mM CaCl2), 1 mM MgCl2, 1% BSA) three times. Integrins αvβ3 and increasing concentrations of the compound of interest were added and incubated for 2 hours at room temperature, and then wells were washed three times with buffer A and incubated with a streptavidin HRP conjugate (1:1000 in buffer A) for 1 hour at room temperature. Finally, wells were washed three times with buffer A and […] peroxidase substrate TMB was added, and the reaction was terminated after 30 minutes with 50 µL of 450 nm stop solution for TMB. Absorbance was determined at 450 nm with a Microplate Reader (Bio-Rad, Hercules, CA, USA). […]

A short description of data set [4]: Body weight of tumor-bearing mice (toxicity). It counts as in vivo. Particulars: daily subcutaneous dosing; for toxicity indicated by body weight: 3 weeks; for average body weight: at conclusion of 3 weeks. The protocol:
(§2) The animal model and treatment used a total of 50 Athymic Nude-Foxn1^nu male mice which were purchased from Envigo, Indianapolis, IN, USA. The mice were housed in a clean room under strict conditions. Under the approval of the Institutional Animal Care and Use Committee, all animal protocols were carried out in line with the National Institute of Health Guide for the Care and Use of Laboratory Animals. Once cells reached 70-80% confluency, the cells were collected and counted. About 2×10^6 CWR-R1ca-Luc cells were mixed in 1:1 Matrigel® Matrix (Life Sciences, Tewksbury, MA) and injected subcutaneously into the flank of each mouse. Measurement of tumor volume of prostate cancer tumors of mice and mice weights were taken biweekly. When a palpable tumor developed, size 300-500 mm^3, mice were randomized into 10 groups with 5 mice in each group. The corresponding treatment was injected subcutaneously every day per each group up to 3 weeks. Before starting the treatment, the mice were injected with luciferin 150 mg/kg intraperitoneally. After 20 minutes, the mice were anesthetized in an induction chamber using 2% isoflurane, and bioluminescence images were taken using IVIS® Lumina III In Vivo Imaging System (PerkinElmer, Boston, MA) as a base line. Before the end of the experiment, the imaging process was repeated for all mice groups.
(§3) All compounds were dosed at 0.5 mole of compound/kg mouse each day. Thus, a 20 g mouse was dosed at […] of compound per day, and larger mice were dosed at correspondingly higher doses in proportionality to mouse body weight. […] The concentration of each formulation was adjusted so that each dose would be 10 μL solution/g mouse.
FIG. 7 is a bar graph of average body weight of the mice at the conclusion of the study period of three weeks for conjugate 59, conjugate 61, conjugate 62, MMAE chemo, and PBS (control), in accordance with embodiments of the present invention. Average body weight changes over the course of the study relative to control, particularly due to loss of body weight, which can relate to toxicity of the treatment group.

Data set [5] can be described thus: Solubility in PBS on formulation. Particulars: formulation for dosing. It counts as physicochemical. The procedure:
as §3

Another data set relates to CWR-R1ca-Luc cells. Description: In vivo efficacy, prostate cancer tumors in nude mice. The conditions noted are these: for average prostate cancer tumor volume: 0.5 mole of compound/kg mouse each day, subcutaneous, 3 weeks; for IVIS average photons (viable tumor tissue) / average prostate cancer tumor weight: at conclusion of 3 weeks, daily subcutaneous dosing. The protocol: as §2, §3
FIGS. 4A, 4B, 5, 6 and 7 all pertain to the same experiment conducted with mice having prostate cancer over a study period of three weeks.

Like-named read-outs stand apart in the source and are kept apart here.

On to `CC(C)[C@H](NC(=O)CCc1cn(CCOCCOCCOCCOCCOCCOCCOCCOCCOCCOCCOCCOCCOCCOCCOCCOCCOCCOCCOCCOCCOCCOCCOCCOCCOCCOCCOCCOCCOCCOCCOCCOCCOCCOCCOCCNC(=O)CC[C@H](NS(=O)(=O)c2ccccc2)C(=O)O)nn1)C(=O)N[C@@H](CCCNC(N)=O)C(=O)Nc1ccc(CO)cc1` [conjugate 74], for which the “cell viability result in words” value in data set [1] was “does not cause cell death”. Also, the IC50 (in general, the concentration needed to halve the response being measured) in data set [1] is more than 10 µM; in data set [2], more than 10 µM; in data set [3], 0.054 ± 0.0022 µM.
`Nc1ccn([C@@H]2O[C@H](CO)[C@@H](O)C2(F)F)c(=O)n1` [Gemcitabine, reference compound]: in data set [2] (Homo sapiens), the midpoint of inhibition, the IC50, lay at 1.79 µM.
`CC(C)[C@H](NC(=O)CCOCCOCCOCc1cn(CCOCCOCCOCCOCCOCCOCCOCCOCCOCCOCCOCCOCCOCCOCCOCCOCCOCCOCCOCCOCCOCCOCCOCCOCCOCCOCCOCCOCCOCCOCCOCCOCCOCCOCCOCCOCCC(=O)NC[C@H](NS(=O)(=O)c2ccccc2)C(=O)O)nn1)C(=O)N[C@@H](CCCNC(N)=O)C(=O)Nc1ccc(CO)cc1` [conjugate 59]: the IC50 in data set [3] turned out to be 0.103 ± 0.0017 µM.
In the case of `CCc1c2c(nc3ccc(O)cc13)-c1cc3c(c(=O)n1C2)COC(=O)[C@]3(O)CC` [SN38, reference compound], the IC50 is 0.00432 µM in data set [1] (Homo sapiens, U-87 MG) and 0.00567 µM in data set [2] (Homo sapiens).
In the case of `CC(C)[C@H](NC(=O)CCc1cn(CCOCCOCCOCCOCCOCCOCCOCCOCCOCCOCCOCCOCCOCCOCCOCCOCCOCCOCCOCCOCCOCCOCCOCCOCCOCCOCCOCCOCCOCCOCCOCCOCCOCCOCCOCCNC(=O)CC[C@H](NS(=O)(=O)c2ccccc2)C(=O)O)nn1)C(=O)N[C@@H](CCCNC(N)=O)C(=O)Nc1ccc(COC(=O)N2CCCC(c3ccc(-n4cc5cccc(C(N)=O)c5n4)cc3)C2)cc1` (some centres unmarked) [conjugate 40], the IC50 in data set [1] was 1.74 µM; at integrin αvβ3 receptor it was 0.00336 ± 0.00022 µM.
For the molecule `CCc1c2c(nc3ccc(O)cc13)-c1cc3c(c(=O)n1C2)COC(=O)[C@@]3(CC)OC(=O)N(C)CCN(C)C(=O)OCc1ccc(NC(=O)[C@H](CCCNC(N)=O)NC(=O)[C@@H](NC(=O)CCc2cn(CCOCCOCCOCCOCCOCCOCCOCCOCCOCCOCCOCCOCCOCCOCCOCCOCCOCCOCCOCCOCCOCCOCCOCCOCCOCCOCCOCCOCCOCCOCCOCCOCCOCCOCCOCCOC)nn2)C(C)C)cc1` [conjugate 73], the “cell viability result in words” value in data set [1] is “no activity”. For the same molecule, the IC50 in data set [1] and in data set [2] was more than 10 µM throughout.
Take `CC[C@H](C)[C@@H](C(CC(=O)N1CCC[C@H]1[C@H](OC)[C@@H](C)C(=O)N[C@H](C)[C@@H](O)c1ccccc1)OC)N(C)C(=O)[C@@H](NC(=O)[C@@H](NC)C(C)C)C(C)C` (some centres unmarked) [MMAE, monomethylauristatin E, reference compound]: the IC50 in data set [1] (Homo sapiens, U-87 MG) is 0.00251 µM. Further, in data set [4], the “toxicity indicated by body weight” value is given as “high toxicity” and the average body weight entry is “a loss of body weight over the course of the experiment”. The molecule further returned an IC50 in data set [2] (Homo sapiens) of 0.00385 µM. Moreover, the “solubility in straight PBS” value in data set [5] was “less soluble in straight PBS”. In the data set on CWR-R1ca-Luc cells, the “average prostate cancer tumor volume” value is recorded as “smaller tumor volumes than the non-MMAE conjugate 59”, the “IVIS average photons (viable tumor tissue)” value is “smaller IVIS® numbers than the non-MMAE conjugate 59” and the “average prostate cancer tumor weight” value is recorded as “smaller tumor weights than the non-MMAE conjugate 59”.
Take `NC(=O)c1cccc2cn(-c3ccc([C@@H]4CCCNC4)cc3)nc12` [Niraparib, reference compound]: half-maximal inhibition in data set [1] (Homo sapiens, U-87 MG) (IC50) required 0.155 µM.
Take `CC[C@H](C)[C@@H]([C@@H](CC(=O)N1CCC[C@H]1[C@H](OC)[C@@H](C)C(=O)N[C@H](C)[C@@H](O)c1ccccc1)OC)N(C)C(=O)[C@@H](NC(=O)[C@H](C(C)C)N(C)C(=O)OCc1ccc(NC(=O)[C@H](CCCNC(N)=O)NC(=O)[C@@H](NC(=O)CCOCCOCCOCc2cn(CCOCCOCCOCCOCCOCCOCCOCCOCCOCCOCCOCCOCCOCCOCCOCCOCCOCCOCCOCCOCCOCCOCCOCCOCCOCCOCCOCCOCCOCCOCCOCCOCCOCCOCCOCCOCCC(=O)NC[C@H](NS(=O)(=O)c3ccccc3)C(=O)O)nn2)C(C)C)cc1)C(C)C` [conjugate 61]: in data set [4], the “toxicity indicated by body weight” value is listed as “mild toxicity” and the average body weight result is listed as “only a small difference compared to the PBS control”. Further, in the data set on CWR-R1ca-Luc cells, the “average prostate cancer tumor volume” value is recorded as “inhibits tumor growth more than the PEG15 conjugate 62”; the “IVIS average photons (viable tumor tissue)” value is “much smaller than the smaller PEG15 conjugate 62 and MMAE alone”; the “average prostate cancer tumor weight” value is “comparable to the smaller PEG15 MMAE conjugate 62”.
On to `CC(C)[C@H](NC(=O)CCc1cn(CCOCCOCCOCCOCCOCCOCCOCCOCCOCCOCCOCCOCCOCCOCCOCCOCCOCCOCCOCCOCCOCCOCCOCCOCCOCCOCCOCCOCCOCCOCCOCCOCCOCCOCCOCCNC(=O)CCC(NS(=O)(=O)c2ccccc2)C(=O)O)nn1)C(=O)N[C@@H](CCCNC(N)=O)C(=O)Nc1ccc(COC(=O)Nc2ccn([C@@H]3O[C@H](CO)C(O)C3(F)F)c(=O)n2)cc1` (some centres unmarked) [conjugate 45], for which the IC50 in data set [2] was 3.97 µM; on integrin αvβ3 receptor, 0.00084 ± 0.00016 µM.
